Data as given in patent publication US10829484B2, “Compounds and methods for kinase modulation, and indications therefor” (Plexxikon Inc., priority 2015, dated 2020).

molecular target: T1, BaF3-FLT3-ITD-D835V (Homo sapiens, UniProt P36888, INS600HVDFREYEYD/D835V, cells depend on it); experiment: CTB viability assay CS0048, BaF3-FLT3-ITD-D835V; type: cell-based, murine; details: BaF3-FLT3-ITD-D835V cells, CellTiter Blue viability, 72 hours; read-out: Cell Assay: CS0048: BaF3-FLT3-ITD-D835V CTB:IC50
T1 sequence (P36888 with tags, fused parts or gaps INS600HVDFREYEYD/D835V): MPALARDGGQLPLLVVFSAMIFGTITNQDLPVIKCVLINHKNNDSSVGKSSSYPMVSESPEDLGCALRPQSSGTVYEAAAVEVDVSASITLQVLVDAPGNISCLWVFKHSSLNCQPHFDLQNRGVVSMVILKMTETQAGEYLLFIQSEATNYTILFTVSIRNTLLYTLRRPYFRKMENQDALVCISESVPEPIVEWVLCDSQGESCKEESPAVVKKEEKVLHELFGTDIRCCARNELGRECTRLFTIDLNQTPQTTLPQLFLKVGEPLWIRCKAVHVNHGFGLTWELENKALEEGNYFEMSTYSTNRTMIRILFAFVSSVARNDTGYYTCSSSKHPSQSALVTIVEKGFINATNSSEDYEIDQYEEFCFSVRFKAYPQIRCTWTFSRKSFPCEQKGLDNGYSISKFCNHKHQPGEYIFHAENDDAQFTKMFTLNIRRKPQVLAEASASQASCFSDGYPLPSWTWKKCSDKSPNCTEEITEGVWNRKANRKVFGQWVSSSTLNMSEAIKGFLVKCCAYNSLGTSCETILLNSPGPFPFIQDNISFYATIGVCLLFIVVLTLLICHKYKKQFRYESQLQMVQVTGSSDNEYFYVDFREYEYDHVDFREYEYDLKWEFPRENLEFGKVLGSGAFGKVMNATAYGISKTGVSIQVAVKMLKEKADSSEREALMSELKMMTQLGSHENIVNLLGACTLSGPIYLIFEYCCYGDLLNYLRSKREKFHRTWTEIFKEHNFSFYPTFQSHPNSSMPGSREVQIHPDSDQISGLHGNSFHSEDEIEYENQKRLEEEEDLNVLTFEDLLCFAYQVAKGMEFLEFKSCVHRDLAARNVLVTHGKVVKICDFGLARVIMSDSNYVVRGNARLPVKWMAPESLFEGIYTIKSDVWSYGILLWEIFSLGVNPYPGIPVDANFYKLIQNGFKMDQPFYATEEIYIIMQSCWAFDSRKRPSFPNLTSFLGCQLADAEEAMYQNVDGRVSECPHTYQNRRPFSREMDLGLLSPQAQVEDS
Source text: Gene constructs containing the human FLT3 sequences FLT3-ITD, FLT3-ITD-F691L, FLT3-ITD-D835V and FLT3-D835V were synthesized by reverse translation of the human protein sequences, with codons optimized for mammalian expression. Sequence of the internal tandem duplication (ITD) was based on the MV4-11 ITD sequence. Synthetic DNA constructs were cloned into the pMSCV puro retroviral vector (Clontech) and transfected into the EcoPack2-293 packaging cell line (Clontech) to generate retroviruses that contain the different FLT3 constructs. Viruses were transduced into the IL-3-dependent, murine […] cell line, Ba/F3, and selected for puromycin resistance and IL-3 independence. All cell lines were cloned by limiting dilution and clones were used for all subsequent cell assays. Overexpression of the FLT3 mutants in the Ba/F3 cells results in constitutive phosphorylation of the exogenous FLT3 protein, which is required for IL-3 independence.
Cell lines were serum starved overnight in media containing 0.5% FBS, plated at 15,000 cells/well in 96-well white-walled tissue culture plates, and 3-fold serial dilutions of test compounds of Formula I were added for 72 hours at 37° C. CellTiter Blue (CTB, Promega) was added and incubated for an additional 3 hours at 37° C. Fluorescence was read at 560 nm excitation, 590 nm emission. Wells with CTB+media only were used for background subtraction, and the fluorescence of compound-treated cells was normalized to the fluorescence of DMSO-treated cells. IC50s were determined using Igor Pro software. All compounds are assayed in duplicate cell plates.

Structure (SMILES) | GI50
CC(O)c1nn(C)cc1Nc1ncc(-c2ccc(CC(=O)Nc3cc(C4(C(F)(F)F)CC4)on3)c(F)c2)cn1 (stereo not drawn) [P-114, 2-[2-fluoro-4-[2-[[3-(1-hydroxyethyl)-1-methylpyrazol-4-yl]amino]pyrimidin-5-yl]phenyl]-N-[5-[1-(trifluoromethyl)cyclopropyl]isoxazol-3-yl]acetamide] | 10 to 50 nM
Cn1cc(Nc2ncc(-c3ccc(CC(=O)Nc4cc(C5(C(F)(F)F)CC5)on4)c(F)c3)cn2)c(C(F)(F)F)n1 [P-077, 2-[2-fluoro-4-[2-[[1-methyl-3-(trifluoromethyl)pyrazol-4-yl]amino]pyrimidin-5-yl]phenyl]-N-[5-[1-(trifluoromethyl)cyclopropyl]isoxazol-3-yl]acetamide] | 10 to 50 nM
COc1nn(C)cc1Nc1ncc(-c2ccc(CC(=O)Nc3cc(C4(C(F)(F)F)CC4)on3)c(F)c2)c(OC)n1 [P-123, 2-[2-fluoro-4-[4-methoxy-2-[(3-methoxy-1-methyl-pyrazol-4-yl)amino]pyrimidin-5-yl]phenyl]-N-[5-[1-(trifluoromethyl)cyclopropyl]isoxazol-3-yl]acetamide] | 10 to 50 nM
COc1nn(C2CC2)cc1Nc1ncc(-c2ccc(CC(=O)Nc3cc(C4(C(F)(F)F)CC4)on3)c(F)c2)c(OC)n1 [P-136, 2-[4-[2-[(1-cyclopropyl-3-methoxypyrazol-4-yl)amino]-4-methoxy-pyrimidin-5-yl]-2-fluorophenyl]-N-[5-[1-(trifluoromethyl)cyclopropyl]isoxazol-3-yl]acetamide] | 10 to 50 nM
Cn1nccc1Nc1ncc(-c2ccc(CC(=O)Nc3cc(C4(C(F)(F)F)CC4)on3)c(F)c2)cn1 [P-091, 2-[2-fluoro-4-[2-[(2-methylpyrazol-3-yl)amino]pyrimidin-5-yl]phenyl]-N-[5-[1-(trifluoromethyl)cyclopropyl]isoxazol-3-yl]acetamide] | 10 to 50 nM
O=C(Cc1ccc(-c2cnc(Nc3ccccc3)cn2)cc1F)Nc1cc(C2(C(F)(F)F)CC2)on1 [P-005, 2-[4-(5-anilinopyrazin-2-yl)-2-fluorophenyl]-N-[5-[1-(trifluoromethyl)cyclopropyl]isoxazol-3-yl]acetamide] | 10 to 50 nM
Cn1cnc(Nc2ncc(-c3ccc(CC(=O)Nc4cc(C5(C)CC5)no4)c(F)c3)cn2)c1 [P-112, 2-[2-fluoro-4-[2-[(1-methylimidazol-4-yl)amino]pyrimidin-5-yl]phenyl]-N-[3-(1-methylcyclopropyl)isoxazol-5-yl]acetamide] | 10 to 50 nM
Cc1nn(C)cc1Nc1ncc(-c2ccc(CC(=O)Nc3cc(C4(C(F)(F)F)CC4)on3)c(F)c2)c(C)n1 [P-116, 2-[4-[2-[(1,3-dimethylpyrazol-4-yl)amino]-4-methyl-pyrimidin-5-yl]-2-fluorophenyl]-N-[5-[1-(trifluoromethyl)cyclopropyl]isoxazol-3-yl] acetamide] | 10 to 50 nM
O=C(Cc1ccc(-c2ccc(Nc3ccccc3)nc2)cc1F)Nc1cc(C2(C(F)(F)F)CC2)on1 [P-003, 2-[4-(6-anilino-3-pyridyl)-2-fluoro-phenyl]-N-[5-[1-(trifluoromethyl)cyclopropyl]isoxazol-3-yl]acetamide] | 10 to 50 nM
COc1cc(Nc2ncc(-c3ccc(CC(=O)Nc4cc(C5(C(F)(F)F)CC5)on4)c(F)c3)cn2)n(C)n1 [P-164, 2-[2-fluoro-4-[2-[(5-methoxy-2-methyl-pyrazol-3-yl)amino]pyrimidin-5-yl]phenyl]-N-[5-[1-(trifluoromethyl)cyclopropyl]isoxazol-3-yl]acetamide] | 10 to 50 nM
CCn1cnc(Nc2ncc(-c3ccc(CC(=O)Nc4cc(C5(C(F)(F)F)CC5)on4)c(F)c3)cn2)c1 [P-068, 2-[4-[2-[(1-ethylimidazol-4-yl)amino]pyrimidin-5-yl]-2-fluorophenyl]-N-[5-[1-(trifluoromethyl)cyclopropyl]isoxazol-3-yl]acetamide] | 10 to 50 nM
COc1nn(C)cc1Nc1ncc(-c2ccc(CC(=O)Nc3cc(C4(C(F)(F)F)CC4)on3)c(F)c2)c(C)n1 [P-124, 2-[2-fluoro-4-[2-[(3-methoxy-1-methylpyrazol-4-yl)amino]-4-methyl-pyrimidin-5-yl]phenyl]-N-[5-[1-(trifluoromethyl)cyclopropyl]isoxazol-3-yl] acetamide] | 10 to 50 nM
CCn1nccc1Nc1ncc(-c2ccc(CC(=O)Nc3cc(C4(C(F)(F)F)CC4)on3)c(F)c2)cn1 [P-103, 2-[4-[2-[(2-ethylpyrazol-3-yl)amino]pyrimidin-5-yl]-2-fluorophenyl]-N-[5-[1-(trifluoromethyl)cyclopropyl]isoxazol-3-yl]acetamide] | 10 to 50 nM
Cn1cnc(Nc2ncc(-c3ccc(CC(=O)Nc4cc(C5(C(F)F)CC5)on4)c(F)c3)cn2)c1 [P-184, N-[5-[1-(difluoromethyl)cyclopropyl]isoxazol-3-yl]-2-[2-fluoro-4-[2-[(1-methylimidazol-4-yl)amino]pyrimidin-5-yl]phenyl] acetamide] | 10 to 50 nM
CCc1n[nH]cc1Nc1ncc(-c2ccc(CC(=O)Nc3cc(C4(C(F)(F)F)CC4)on3)c(F)c2)cn1 [P-214, 2-(4-(2-((3-ethyl-1H-pyrazol-4-yl)amino)pyrimidin-5-yl)-2-fluorophenyl)-N-(5-(1-(trifluoromethyl)cyclopropyl)isoxazol-3-yl)acetamide] | 10 to 50 nM
COCCOc1nn(C)cc1Nc1ncc(-c2ccc(CC(=O)Nc3cc(C4(C(F)(F)F)CC4)on3)c(F)c2)cn1 [P-148, 2-[2-fluoro-4-[2-[[3-(2-methoxyethoxy)-1-methylpyrazol-4-yl]amino]pyrimidin-5-yl]phenyl]-N-[5-[1-(trifluoromethyl)cyclopropyl]isoxazol-3-yl]acetamide] | 10 to 50 nM
Cc1nn(C)cc1Nc1ncc(-c2ccc(CC(=O)Nc3cc(C4(C(F)(F)F)CC4)on3)c(F)c2)c(Cl)n1 [P-157, 2-[4-[4-chloro-2-[(1,3-dimethylpyrazol-4-yl)amino]pyrimidin-5-yl]-2-fluoro-phenyl]-N-[5-[1-(trifluoromethyl)cyclopropyl]isoxazol-3-yl]acetamide] | 10 to 50 nM
Cc1cc(C(=O)N(C)C)ccc1Nc1ncc(-c2ccc(CC(=O)Nc3cc(C4(C(F)(F)F)CC4)on3)c(F)c2)cn1 [P-113, 4-[[5-[3-fluoro-4-[2-oxo-2-[[5-[1-(trifluoromethyl)cyclopropyl]isoxazol-3-yl]amino]ethyl]phenyl]pyrimidin-2-yl]amino]-N,N,3-trimethyl-benzamide] | 10 to 50 nM
